Columns and labels:
GST-tagged FAK = biological target: T1, GST-tagged FAK (Homo sapiens, UniProt Q05397); test: Biochemical assay for FAK activity, Assay 1: phosphorylation of peptide substrate with radio-labeled ATP; details: 5 μM ATP, 30 min pre-incubation; for IC50: read-out: Assay 1 FAK TRF PXC50 (converted)
T1 construct: purchased Invitrogen PV3832
Description: GST-tagged (glutathione S-transferase-tagged) FAK was purchased from Invitrogen (PV3832) (www.invitrogen.com). […] To measure inhibitors of FAK, compounds were first prepared as a 10× stock in 10% DMSO. […] A 6-nM GST-FAK solution was prepared in 1.1× reaction buffer containing 44 mM HEPES, pH=7.2, 11 mM MgCl2, 2.2 mM MnCl2, 1.1 mM DTT and 0.011% Tween-20. Then, 20 μL of the 6 nM GST-FAK solution were pre-incubated with the compounds for 30 min at room temperature. […] The reaction was allowed to proceed for 90 min before being quenched with 40 μL of 1% H3PO4. A portion of the reaction mixture (60 μL) was transferred to a phospho-cellulose filter plate (Millipore; www.millipore.com, MAPHNOB50) and incubated for 20 minutes. The plate was filtrated, washed three times using 150 μL of 0.5% H3PO4 and dried at 50° C. for 30 min. After the addition of 60 μL Microscint-20 to the plate, radioactivity was measured using a TopCount (PerkinElmer; www.PerkinElmer.com).

[1] = biological target: T2, Full length Human FAK (Flag-His-TEV-FAK1) (Homo sapiens, UniProt Q05397); test: Biochemical assay for FAK activity, Assay 2: LANCE Ultra ULight peptide phosphorylation, 665 nm/615 nm ratio; details: Flag-His-TEV-FAK1, 10 μM ATP, 30 min pre-incubation; for IC50: read-out: Assay 2 FAK H 31284A TRF PXC50 (converted)
T2 construct: Full length Human FAK was expressed using baculovirus in Sf9 cells; made in house; host or cells: baculovirus in Sf9 cells
Description: Flag-His-TEV-FAK1 was prepared in-house. Full length Human FAK was expressed using baculovirus in Sf9 cells with N-terminal FLAG-6×His tags followed by a TEV cleavage site (FLAG-6×His-TEV-huFAK). […] To measure inhibitors of FAK, compounds were first prepared as a 100× stock in 100% DMSO. […] After incubating for 120 minutes at room temperature, the reaction is quenched by adding 5 uL of 20 mM EDTA and 5nMEu-Anti-pTyr antibody in 1× LANCE detection buffer.

T2 sequence (Q05397 whole entry): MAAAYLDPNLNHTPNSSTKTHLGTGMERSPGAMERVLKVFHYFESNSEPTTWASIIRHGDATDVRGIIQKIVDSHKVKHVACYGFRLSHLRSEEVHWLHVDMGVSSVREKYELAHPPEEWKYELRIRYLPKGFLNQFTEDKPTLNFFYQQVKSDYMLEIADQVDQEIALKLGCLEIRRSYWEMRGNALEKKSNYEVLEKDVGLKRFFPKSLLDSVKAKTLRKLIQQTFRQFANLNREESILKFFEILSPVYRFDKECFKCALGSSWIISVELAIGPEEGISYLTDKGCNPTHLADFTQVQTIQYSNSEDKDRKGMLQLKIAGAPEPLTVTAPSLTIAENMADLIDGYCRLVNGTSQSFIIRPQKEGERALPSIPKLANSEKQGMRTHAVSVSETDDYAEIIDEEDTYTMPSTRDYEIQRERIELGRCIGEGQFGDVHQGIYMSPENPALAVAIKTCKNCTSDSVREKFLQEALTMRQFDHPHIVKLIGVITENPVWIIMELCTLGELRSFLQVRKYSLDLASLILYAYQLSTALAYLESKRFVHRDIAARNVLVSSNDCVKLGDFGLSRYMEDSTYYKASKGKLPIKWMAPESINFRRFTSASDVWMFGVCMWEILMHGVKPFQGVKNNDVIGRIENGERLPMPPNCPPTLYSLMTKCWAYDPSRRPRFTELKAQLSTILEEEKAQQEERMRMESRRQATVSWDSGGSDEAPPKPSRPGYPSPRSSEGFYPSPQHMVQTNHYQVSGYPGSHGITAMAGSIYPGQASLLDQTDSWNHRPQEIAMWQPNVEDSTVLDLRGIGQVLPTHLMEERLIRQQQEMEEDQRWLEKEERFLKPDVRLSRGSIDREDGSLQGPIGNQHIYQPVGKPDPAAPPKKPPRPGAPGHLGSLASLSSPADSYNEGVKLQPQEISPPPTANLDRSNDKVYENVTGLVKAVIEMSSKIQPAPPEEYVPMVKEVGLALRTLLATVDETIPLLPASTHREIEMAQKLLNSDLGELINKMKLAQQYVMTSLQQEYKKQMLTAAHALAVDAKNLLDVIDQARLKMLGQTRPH
T1 sequence (Q05397 whole entry): as above

IC50 (GST-tagged FAK) [nM]	IC50 [1] [nM]	Compound	also measured
0.631	5.01	CNC(=O)c1ccccc1Nc1cc(Nc2cnn(C)c2C)ncc1Cl [Example 59, 2-({5-Chloro-2-[(1,5-dimethyl-1H-pyrazol-4-yl)amino]-4-pyridinyl}amino)-N-methylbenzamide]	–
–	15.8	CCn1nc(C)cc1Nc1cc(Nc2ccccc2C(=O)NOC)c(C2CC2)cn1 [Example 56, 2-[5-Cyclopropyl-2-(2-ethyl-5-methyl-2H-pyrazol-3-ylamino)-pyridin-4-ylamino]-N-methoxy-benzamide]	–
–	10	CCn1nc(CCO)cc1Nc1cc(Nc2c(F)cccc2C(=O)NC)c(Cl)cn1 [Example 90, 2-[(5-Chloro-2-{[1-ethyl-3-(2-hydroxyethyl)-1H-pyrazol-5-yl]amino}-4-pyridinyl)amino]-3-fluoro-N-methylbenzamide]	–
–	2.51	CONC(=O)c1cccc(F)c1Nc1cc(Nc2cc(C)nn2C(C)C)ncc1Cl [Example 72, 2-[(5-Chloro-2-{[3-methyl-1-(1-methylethyl)-1H-pyrazol-5-yl]amino}-4-pyridinyl)amino]-3-fluoro-N-(methyloxy)benzamide]	–
–	2.51	CNC(=O)c1ccc(F)cc1Nc1cc(Nc2cc(C)nn2C)ncc1Cl [Example 87, 2-({5-Chloro-2-[(1,3-dimethyl-1H-pyrazol-5-yl)amino]-4-pyridinyl}amino)-4-fluoro-N-methylbenzamide]	–
–	63.1	CONC(=O)c1ccccc1Nc1cc(Nc2c(C)cnn2C(C)C)ncc1Cl [Example 49, 2-[(5-Chloro-2-{[4-methyl-1-(1-methylethyl)-1H-pyrazol-5-yl]amino}-4-pyridinyl)amino]-N-(methyloxy)benzamide]	–
–	501	CCn1nc(CN(C)C)cc1Nc1cc(Nc2c(F)cccc2C(=O)NC)c(Cl)cn1 [Example 92, 2-{[5-Chloro-2-({3-[(dimethylamino)methyl]-1-ethyl-1H-pyrazol-5-yl}amino)-4-pyridinyl]amino}-3-fluoro-N-methylbenzamide]	–
–	12.6	CNC(=O)c1cccc(F)c1Nc1cc(Nc2cc(CO)nn2C)ncc1C(F)(F)F [Example 80, 3-Fluoro-2-{[2-{[3-(hydroxymethyl)-1-methyl-1H-pyrazol-5-yl]amino}-5-(trifluoromethyl)-4-pyridinyl]amino}-N-methylbenzamide]	–
–	10	[2H]C([2H])(O)c1cc(Nc2cc(Nc3c(F)cccc3C(=O)NC)c(Cl)cn2)n(C)n1 [Example 93, 2-[(5-Chloro-2-{[3-(hydroxymethyl)-1-methyl-1H-pyrazol-5-yl]amino}-4-pyridinyl)amino]-3-fluoro-N-methylbenzamide-d2]	–
–	6.31	CONC(=O)c1cc(F)ccc1Nc1cc(Nc2cc(C)nn2C(C)C)ncc1Cl [Example 71, 2-[(5-Chloro-2-{[3-methyl-1-(1-methylethyl)-1H-pyrazol-5-yl]amino}-4-pyridinyl)amino]-5-fluoro-N-(methyloxy)benzamide]	–
–	15.8	CNC(=O)c1ccccc1Nc1cc(Nc2cc(C)nn2C)ncc1C#N [Example 65, 2-({5-Cyano-2-[(1,3-dimethyl-1H-pyrazol-5-yl)amino]-4-pyridinyl}amino)-N-methylbenzamide]	–
–	12.6	CNC(=O)c1cc(F)ccc1Nc1cc(Nc2cc(C)nn2C)ncc1Cl [Example 83, 2-({5-Chloro-2-[(1,3-dimethyl-1H-pyrazol-5-yl)amino]-4-pyridinyl}amino)-5-fluoro-N-methylbenzamide]	–
–	50.1	CNC(=O)c1ccccc1Nc1cc(Nc2cc(C)nn2C)ncc1C(C)C [Example 58, 2-[2-(2,5-Dimethyl-2H-pyrazol-3-ylamino)-5-isopropyl-pyridin-4-ylamino]-N-methyl-benzamide]	–
–	25.1	CCOCc1cc(Nc2cc(Nc3ccccc3C(=O)NC)c(Cl)cn2)n(C(C)C)n1 [Example 61, 2-[(5-Chloro-2-{[3-[(ethyloxy)methyl]-1-(1-methylethyl)-1H-pyrazol-5-yl]amino}-4-pyridinyl)amino]-N-methylbenzamide]	–
–	10	CCn1nc(CO)cc1Nc1cc(Nc2c(F)cccc2C(=O)NC)c(C(F)(F)F)cn1 [Example 79, 2-{[2-{[1-Ethyl-3-(hydroxymethyl)-1H-pyrazol-5-yl]amino}-5-(trifluoromethyl)-4-pyridinyl]amino}-3-fluoro-N-methylbenzamide]	–
–	158	CCn1nc(CN(C)C)cc1Nc1cc(Nc2c(F)cccc2C(=O)NOC)c(Cl)cn1 [Example 95e, 2-{[5-Chloro-2-({3-[(dimethylamino)methyl]-1-ethyl-1H-pyrazol-5-yl}amino)-4-pyridinyl]amino}-3-fluoro-N-(methyloxy)benzamide]	–
–	6.31	CONC(=O)c1ccccc1Nc1cc(Nc2cc(CO)nn2C(C)C)ncc1Cl [Example 52, 2-[(5-Chloro-2-{[3-(hydroxymethyl)-1-(1-methylethyl)-1H-pyrazol-5-yl]amino}-4-pyridinyl)amino]-N-(methyloxy)benzamide]	–

Continued, compound first:

Compound	IC50 (GST-tagged FAK) [nM]	IC50 [1] [nM]	also measured
CCn1nccc1Nc1cc(Nc2ccccc2C(=O)NC)c(C(F)(F)F)cn1 [Example 29, 2-{[2-[(1-Ethyl-1H-pyrazol-5-yl)amino]-5-(trifluoromethyl)-4-pyridinyl]amino}-N-methylbenzamide]	0.501	2	–
CCn1nc(C(=O)NCCN(C)C)cc1Nc1cc(Nc2ccccc2C(=O)NC)c(Cl)cn1 [Example 24, 5-{[5-Chloro-4-({2-[(methylamino)carbonyl]phenyl}amino)-2-pyridinyl]amino}-N-[2-(dimethylamino)ethyl]-1-ethyl-1H-pyrazole-3-carboxamide]	6.31	63.1	–
CNC(=O)c1ccccc1Nc1cc(Nc2cc(C(C)(C)C)nn2C)ncc1Cl [Example 14, 2-[(5-Chloro-2-{[3-(1,1-dimethylethyl)-1-methyl-1H-pyrazol-5-yl)amino]-4-pyridinyl}amino]-N-methylbenzamide]	2.51	20	–
CNC(=O)c1ccccc1Nc1cc(Nc2cn(C)nc2C)ncc1Cl [Example 26, 2-({5-Chloro-2-[(1,3-dimethyl-1H-pyrazol-4-yl)amino]-4-pyridinyl}amino)-N-methylbenzamide]	0.398	3.98	–
CCn1nc(C(=O)NOC)cc1Nc1cc(Nc2ccccc2C(=O)NC)c(Cl)cn1 [Example 19, 5-{[5-Chloro-4-({2-[(methylamino)carbonyl]phenyl}amino)-2-pyridinyl]amino}-1-ethyl-N-(methyloxy)-1H-pyrazole-3-carboxamide]	5.01	63.1	–
CNC(=O)c1ccccc1Nc1cc(Nc2cc(C)nn2CCN(C)C)ncc1C(F)(F)F [Example 31, 2-{[2-({1-[2-(Dimethylamino)ethyl]-3-methyl-1H-pyrazol-5-yl}amino)-5-(trifluoromethyl)-4-pyridinyl]amino}-N-methylbenzamide]	3.98	–	–
CNC(=O)c1ccccc1Nc1cc(Nc2cc(C)nn2C(C)C)ncc1C(F)(F)F [Example 30, N-Methyl-2-{[2-[(3-methyl-1-(1-methylethyl)-1H-pyrazol-5-yl]amino}-5-(trifluoromethyl)-4-pyridinyl]amino}benzamide]	0.398	1.58	–
CNC(=O)c1cccc(F)c1Nc1cc(Nc2cc(C)nn2C)ncc1Cl [Example 8, 2-({5-Chloro-2-[(1,3-dimethyl-1H-pyrazol-5-yl)amino]-4-pyridinyl}amino)-3-fluoro-N-methylbenzamide]	0.631	5.01	–
CNC(=O)c1cc(F)c(F)cc1Nc1cc(Nc2cc(C)nn2C)ncc1Cl [Example 9, 2-({5-Chloro-2-[(1,3-dimethyl-1H-pyrazol-5-yl)amino]-4-pyridinyl}amino)-4,5-difluoro-N-methylbenzamide]	1	6.31	–
CNC(=O)c1ccccc1Nc1cc(Nc2cc(C)nn2-c2ccccc2)ncc1C(F)(F)F [Example 33, N-Methyl-2-{[2-[(3-methyl-1-phenyl-1H-pyrazol-5-yl)amino]-5-(trifluoromethyl)-4-pyridinyl]amino}benzamide]	0.398	–	–
2-({5-Chloro-2-[(1-ethyl-1H-pyrazol-5-yl)amino]-4-pyridinyl}amino)-N-ethylbenzamide [Example 44]	–	–	Assay 1 FAK TRF PXC50 (GST-tagged FAK): 8.2; Assay 2 FAK H 31284A TRF PXC50 [1]: 7.2
CNC(=O)c1ccccc1Nc1cc(Nc2cc(C)nn2CCO)ncc1C(F)(F)F [Example 34, 2-{[2-{[1-(2-hydroxyethyl)-3-methyl-1H-pyrazol-5-yl]amino}-5-(trifluoromethyl)-4-pyridinyl]amino}-N-methylbenzamide]	0.501	–	–
CCn1nc(C(=O)O)cc1Nc1cc(Nc2ccccc2C(=O)NC)c(Cl)cn1 [Example 18, 5-{[5-Chloro-4-({2-[(methylamino)carbonyl]phenyl}amino)-2-pyridinyl]amino}-1-ethyl-1H-pyrazole-3-carboxylic acid]	10	–	–
